# From patent US9931379B2, “Oxyntomodulin analogs and methods of making and using same” (The Research Foundation for The State University of New York, priority 2015, dated 2018)
# Starred links: 1 amine or outer side, 2 acyl side, 3 side chain; linkers in the order of their positions; H or OH if unused. Positions of bridges follow the written chain, without caps; N, C: chain ends. Non-standard residues stand in square brackets, D forms with d. Residues, ends and D or L forms follow the SMILES beside them. CH2(3,3'-bipyridine-6,6')CH2 = c1cc(C[*:1])ncc1-c1ccc(C[*:2])nc1; Biphenyl(4,4'-CH2)2 = c1cc(-c2ccc(C[*:2])cc2)ccc1C[*:1]
# Legend:
# GLP-1R = biological target: T1, GLP-1R (Homo sapiens, UniProt P43220); assay: CRE-driven luciferase reporter assay, HEK293 cells overexpressing GLP-1R; format: cell-based
# T1 construct: expressed in transfected cells
# Experimental: (§1) The surviving cells (referred to as CRE-HEK293) were expanded and then transfected with a G418 selective mammalian expression plasmid encoding human GCGR or GLP-1R, followed by geneticin selection (Life technologies, Carlsbad, Calif.). Single-colony stable cell lines expressing both CRE-luciferase and GCGR/GLP-1R were then established for in vitro activity assays.
# (§2) HEK293-GCGR-CRE and HEK293-GLP-1R-CRE cells were seeded in a white 384-well plate at a density of 5,000 cells per well and cultured for 24 hours in DMEM with 10% FBS at 37° C. with 5% CO2. Cells were treated with different peptides in a dose dependent manner. After 24 hours, 10 μL of Bright-Glo reagent (Promega, Madison, Wis.) was added to each well and luminescence was determined using an Envision multilabel plate reader (PerkinElmer, Waltham, Mass.). The EC50 of each peptide was calculated using GraphPad Prism 6 software (GraphPad, San Diego, Calif.).
# [1] = Far-UV circular dichroism measurement; format: physicochemical; conditions: measure of relative amounts of 310- and α-helix
# Experimental: The sensitivity and scan rate of the spectrophotometer were set to 100 mdeg and 50 nm/min, respectively. All peptides were dissolved in 0.1×PBS to reach final concentrations of 0.2 mg/mL.
# [2] = In vivo pharmacokinetic studies in mice; plasma peptide measured by GLP-1R reporter assay; conditions: mouse, 0.3 mg/kg
# Experimental: All animal care and experimental procedures were approved by the Institutional Animal Care and Use Committee (IACUC) of California Institute for Biomedical Research and strictly followed the NIH guidelines for humane treatment of animals. Female CD-1 mice obtained from Charles River Limited were used after overnight food deprivation for in vivo PK studies. Peptides were dissolved in pH adjusted phosphate buffered saline (PBS, pH=7.4). 100 μL of each peptide (0.3 mg/kg) was administered to each mouse by either i.v. or s.c routes. Food was provided to mice immediately after bleeding at 30 minutes. […] The resulting supernatant plasma was then stored at −80° C. for peptide concentration determination. Peptide concentration in the plasma was determined by in vitro GLP1R activation reporter assay.
# HEK 293 cells overexpressing GLP1R and CRE-Luc reporter were treated with plasma samples at different time points (5 point dose response, starting from 1:20 dilution of each plasma sample), incubated for 16 hours in DMEM with 10% FBS at 37° C. with 5% CO2, and the firefly luciferase activity was measured. At the same time, injected peptides were used to obtain standard curves and parameters for Bottom, Top, EC50, Hill Slope. Random luciferase unit (RLU) for each plasma sample was used to calculate the peptide concentrations in plasma (nmol/L), using parameters derived from the standard curve (RLU=Bottom+(Top−Bottom)/(1+10^((Log EC50−Conc.)*Hill Slope)). Peptide concentrations in plasma were obtained and plotted against time points to obtain in vivo half-life of each peptide, using WinNonLin Phoenix software (Pharsight Corp, St. Louis, Mo.).
# [3] = In vitro half-life after incubation with freshly isolated mouse serum (GLP-1R activation assay); format: in vitro ADME; conditions: read-out: t1/2 in vitro (converted)
# CD1 mice = assay: Oral glucose tolerance test (OGTT); format: in vivo; conditions: 10 μg/mice s.c. 4 hours before oral glucose challenge
# GCGR = biological target: T2, GCGR (Homo sapiens, UniProt P47871); assay: CRE-driven luciferase reporter assay, HEK293 cells overexpressing GCGR; format: cell-based; conditions: compared to its linear counterpart
# T2 construct: expressed in transfected cells
# Experimental: as §1, §2
# [4] = iv, intravenously injected, read-out: elimination half-life (converted)
# [5] = sc, administered subcutaneously, read-out: half-life (converted)
# T1 sequence (P43220 24-463): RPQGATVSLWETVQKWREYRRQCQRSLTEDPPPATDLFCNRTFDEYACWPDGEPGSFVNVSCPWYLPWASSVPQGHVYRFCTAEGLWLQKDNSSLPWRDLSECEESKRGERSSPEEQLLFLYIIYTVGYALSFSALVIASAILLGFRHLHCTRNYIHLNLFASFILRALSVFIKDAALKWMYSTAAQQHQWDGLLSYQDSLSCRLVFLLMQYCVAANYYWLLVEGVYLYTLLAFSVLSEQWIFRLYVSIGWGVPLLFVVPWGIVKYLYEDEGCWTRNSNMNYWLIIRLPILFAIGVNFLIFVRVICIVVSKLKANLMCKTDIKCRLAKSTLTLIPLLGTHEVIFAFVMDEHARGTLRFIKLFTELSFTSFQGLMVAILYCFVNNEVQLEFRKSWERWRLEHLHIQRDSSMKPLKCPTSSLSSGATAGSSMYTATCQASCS
# T2 sequence (P47871 26-477): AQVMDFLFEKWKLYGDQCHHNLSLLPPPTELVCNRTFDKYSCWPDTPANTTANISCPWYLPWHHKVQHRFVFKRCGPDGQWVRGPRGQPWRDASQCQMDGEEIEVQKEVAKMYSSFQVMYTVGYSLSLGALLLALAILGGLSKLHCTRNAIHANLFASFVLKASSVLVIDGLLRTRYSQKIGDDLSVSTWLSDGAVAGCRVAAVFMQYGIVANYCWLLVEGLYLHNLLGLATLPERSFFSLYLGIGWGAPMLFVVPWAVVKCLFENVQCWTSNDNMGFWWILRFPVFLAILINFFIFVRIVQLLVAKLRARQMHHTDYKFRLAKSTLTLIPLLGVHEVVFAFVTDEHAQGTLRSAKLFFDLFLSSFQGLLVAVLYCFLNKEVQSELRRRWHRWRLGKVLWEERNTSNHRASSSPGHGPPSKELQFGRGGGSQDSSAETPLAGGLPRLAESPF
"greater efficacy in receptor activation (GLP-1R; compared to peptide 9, GLP-1R and GCGR)",ratio of [θ]222/[θ]208 [1],"half-life [2, 4] [h]","half-life [2, 5] [h]",half-life [3] [h],increase in activity toward GLP-1R on crosslinking (GLP-1R; compared to its linear counterpart) [fold],increase in activity toward GCGR on crosslinking (GCGR) [fold],SMILES,blood glucose levels decreased to (CD1 mice) [%]
3-4 fold,~1.0,1.4,1.9,13,,,"CC[C@H](C)[C@H](NC(=O)[C@H](CC(N)=O)NC(=O)[C@H](CC(N)=O)NC(=O)[C@H](CCCNC(=N)N)NC(=O)[C@H](CC(N)=O)NC(=O)[C@H](CCCNC(=N)N)NC(=O)[C@H](CCCCN)NC(=O)[C@@H](NC(=O)[C@H](CC(N)=O)NC(=O)[C@H](CCSC)NC(=O)[C@H](CC(C)C)NC(=O)[C@H](Cc1c[nH]c2ccccc12)NC(=O)[C@@H]1CSCc2ccc(cn2)-c2ccc(nc2)CSC[C@H](NC(=O)[C@H](CCC(=O)O)NC(=O)[C@H](CC(=O)O)NC(=O)[C@H](CC(C)C)NC(=O)[C@H](Cc2ccc(O)cc2)NC(=O)[C@H](CCCCN)NC(=O)[C@H](CO)NC(=O)[C@H](Cc2ccc(O)cc2)NC(=O)[C@H](CC(=O)O)NC(=O)[C@H](CO)NC(=O)[C@@H](NC(=O)[C@H](Cc2ccccc2)NC(=O)[C@@H](NC(=O)CNC(=O)[C@H](CCC(N)=O)NC(=O)[C@@H](CO)NC(=O)[C@@H](N)Cc2c[nH]cn2)[C@@H](C)O)[C@@H](C)O)C(=O)N[C@@H](C)C(=O)N[C@@H](C)C(=O)N[C@@H](CCCCN)C(=O)N[C@@H](CCC(=O)O)C(=O)N[C@@H](Cc2ccccc2)C(=O)N[C@@H]([C@@H](C)CC)C(=O)N1)[C@@H](C)O)C(=O)N[C@@H](C)C(N)=O [peptide 11] (H-H[dS]QGTFTSDYSKYLDECAAKEFICWLMNTKRNRNNIA-NH2; linker 17-24 via CH2(3,3'-bipyridine-6,6')CH2)",45
,~1.0,1.2,1.9,13,80,40,"CC[C@H](C)[C@H](NC(=O)[C@H](CC(N)=O)NC(=O)[C@H](CC(N)=O)NC(=O)[C@H](CCCNC(=N)N)NC(=O)[C@H](CC(N)=O)NC(=O)[C@H](CCCNC(=N)N)NC(=O)[C@H](CCCCN)NC(=O)[C@@H](NC(=O)[C@H](CC(N)=O)NC(=O)[C@H](CCSC)NC(=O)[C@H](CC(C)C)NC(=O)[C@H](Cc1c[nH]c2ccccc12)NC(=O)[C@@H]1CSCc2ccc(cc2)-c2ccc(cc2)CSC[C@H](NC(=O)[C@H](CCC(=O)O)NC(=O)[C@H](CC(=O)O)NC(=O)[C@H](CC(C)C)NC(=O)[C@H](Cc2ccc(O)cc2)NC(=O)[C@H](CCCCN)NC(=O)[C@H](CO)NC(=O)[C@H](Cc2ccc(O)cc2)NC(=O)[C@H](CC(=O)O)NC(=O)[C@H](CO)NC(=O)[C@@H](NC(=O)[C@H](Cc2ccccc2)NC(=O)[C@@H](NC(=O)CNC(=O)[C@H](CCC(N)=O)NC(=O)[C@@H](CO)NC(=O)[C@@H](N)Cc2c[nH]cn2)[C@@H](C)O)[C@@H](C)O)C(=O)N[C@@H](C)C(=O)N[C@@H](C)C(=O)N[C@@H](CCCCN)C(=O)N[C@@H](CCC(=O)O)C(=O)N[C@@H](Cc2ccccc2)C(=O)N[C@@H]([C@@H](C)CC)C(=O)N1)[C@@H](C)O)C(=O)N[C@@H](C)C(N)=O [peptide 9] (H-H[dS]QGTFTSDYSKYLDECAAKEFICWLMNTKRNRNNIA-NH2; linker 17-24 via Biphenyl(4,4'-CH2)2)",40
